Source: US10213412B2, “Modulators of CA2+ release-activated CA2+ (CRAC) channels and pharmaceutical uses thereof” (Vivreon Biosciences, LLC, priority 2015, dated 2019)
Where two headings read alike, the source gives them in different places. Blank lines part the entries; values can stand above or below the compound they belong to.

What was measured:
[1] = Concentrations of Compound 1 in mouse plasma and brain after s.c. administration; format: in vivo; details: C57/BL6 mice
Method: Compound 1 was administered s.c. to C57/BL6 mice and plasma and brain samples were processed and analyzed using standard bioanalytical protocols. Three mice were sacrificed at time points: 15 min, 1 hr and 4 hr. Blood was collected into lithium heparin tubes for plasma collection. Brain samples were homogenized prior to extraction using a FastPrep-24 tissue homogenizer. Plasma and brain homogenates were extracted by protein precipitation with acetonitrile containing verapamil as internal standard (IS). After vortexing for 10 min, samples were transferred to a 96 well filter plate and filtered using a centrifuge. Filtrates were analyzed by LC/MS/MS. The compounds were quantified with software using calibration curves. Compound 1 plasma (▪) and brain (•) concentrations are presented.

[2] = in vivo; format: in vivo, C57/Bl6 mice; details: C57/Bl6, mouse, in vivo, ip, 5 mg/kg
[3] = system: experimental autoimmune encephalomyelitis; assay: in vivo; format: in vivo, C57/Bl6 mice
[4] = biological target: T1, recombinant human Orai1 and recombinant human STIM1 (Homo sapiens, UniProt Q96D31); assay: Ca^2+ signaling assay in HEK293 cells transfected with Orai1 and STIM1 (Fura-2); format: cell-based; details: HEK293 transfected with Orai1/STIM1, 10 μM Compound 1, single cell Fura-2 fluorescence
T1 construct: expressed in transfected cells; host or cells: human embryonic kidney 293 cells
Method: FIG. 8 depicts Compound 1 as a modulator of store-operated Ca^2+ (SOC) channels. The white rectangle represents a 2 mM external Ca^2+ concentration solution, the hashed rectangle represents a 0 mM external Ca2+ concentration solution, the slashed rectangle represents a 0 mM external Ca^2+ concentration solution with 2 μM thapsigargin, the grey rectangle represents 10 μM Compound 1 in a 2 mM external Ca^2+ concentration solution, and the black rectangle represents […] 2-aminoethoxydiphenyl borate in a 2 mM external Ca^2+ concentration solution. Cell #1 and Cell #2 represent two separate human embryonic kidney 293 cells successfully transfected with recombinant human Orai1 and recombinant human STIM1.
Compound 1 was screened for inhibition of Ca^2+ signaling by examining the intracellular Ca^2+ response in the presence of Compound 1 (FIG. 8). First, human embryonic kidney 293 cells were transfected by lipofectamine with recombinant human Orai1 and recombinant human STIM1. Recombinant human Orai1 was genetically tagged with enhanced green fluorescent protein to label successfully transfected cells. Cells were plated on coverslips and loaded with 2 μM of the Ca^2+ indicator dye, Fura-2, to allow for detection of intracellular Ca^2+ concentration. Cellular fluorescence was determined by alternating fluorescent excitation at 340 and 380 nanometers.

[5] = In vivo pharmacokinetics in rat; set-up: species or system Sprague Dawley rat
Method: Compound 1 was administered p.o. (▪) or i.v. (•) to a nine week old male Sprague Dawley rat (FIG. 6). For survival blood collection, 250-350 μL blood samples were collected via jugular vein (JUGVEIN) cannula at proposed time points per study protocol and recorded. Blood was collected pre-dose and at 15 & 30 min, 1, 2, 4, 12, 24 & 48 hr after Compound 1 administration. Blood was collected into lithium heparin tubes for plasma collection. Calibration standards and study samples were processed for LC/MS/MS analysis by precipitating 40 μL of each sample with two volumes of ice cold Internal Standard Solution (acetonitrile containing 50 ng/mL of dextromethorphan, 5 ng/mL diphenhydramine and 125 ng/mL diclofenac). The precipitated samples were centrifuged at 6100 g for 30 minutes. Following centrifugation, an aliquot of each supernatant was transferred to an autosampler plate and diluted with an equal volume of 0.2% formic acid in water. Processed study samples were analyzed using LC/MS/MS.

[6] = system: MDR1; assay: MDCK-MDR1 permeability assay; format: in vitro ADME, canine; details: dog
Method: Compound 1 was evaluated for permeability across polarized Madin-Darby canine kidney-multidrug resistance protein 1 (MDCK-MDR1) epithelial monolayers. MDCK-MDR1 cells grown in tissue culture flasks were trypsinized, suspended in medium, and the suspensions were applied to wells of a Millipore 96 well Caco-2 plate (FIG. 7). The cells were allowed to grow and differentiate for five days and confluence was confirmed. For Apical to Basolateral (A→B) permeability, Compound 1 was added to the apical (A) side and amount of permeation is determined on the basolateral (B) side; for Basolateral to Apical (B→A) permeability, the Compound 1 was added to the B side and the amount of permeation was determined on the A side and analyzed by LC/MS/MS.

[7] = system: primary human T cells; assay: Primary human T cell proliferation assay (CFSE dilution); format: cell-based; details: 72 hours
Method: Compound 2 was screened for inhibition of primary human T cell proliferation by quantifying cellular divisions in the presence of Compound 2 (FIG. 3). First, a 96-well plate was coated with 4 μg/mL anti-CD3 antibody (clone: OKT3) in phosphate buffered saline overnight at 4 degrees Celsius. Primary human T cells were then isolated from the peripheral blood of a healthy, consenting donor using an antibody-based human T cell enrichment protocol. Human T cells were then stained with 1.75 μM of carboxyfluorescein succinimidyl ester, to allow for detection of cellular proliferation. Human T cells were then cultured with Compound 2 and activated with immobilized anti-CD3 and 1 μg/mL soluble anti-CD28 (clone: CD28.2) antibodies and 0.2 ng/mL recombinant human IL-2 to induce cellular proliferation through the NFAT and NF-κB transcription factor pathways. Proliferation was assayed through flow cytometric analysis of carboxyfluorescein succinimidyl ester dilution after 72 hours in standard culture conditions. Maximal proliferation occurred with a 3.9 fold increase in activation index compared to an unstimulated control.

[8] = system: Ramos B cells; assay: Cancer cell viability assay, Ramos; format: cell-based, human; details: 120 hours, flow cytometric light scatter
Method: (§1) Compound 2 was screened for inhibition of cancer cell survival by quantifying cellular death in the presence of Compound 2 (FIG. 4). Human Jurkat T cells (▪), an immortalized line of human acute T cell lymphoblastic leukemia; Ramos B cells (•), an immortalized line of human Burkitt's lymphoma; and primary human T cells (▴) isolated from the peripheral blood of a healthy, consenting donor were cultured in the presence Compound 2 to test for cellular viability and cell death. Cells were cultured in standard culture conditions, and primary human T cells were also activated with 4 μg/mL immobilized anti-CD3 (clone: OKT3) and 1 μg/mL soluble anti-CD28 (clone: CD28.2) antibodies and 0.2 ng/mL recombinant human IL-2. Cell viability was assayed through flow cytometric analysis of cellular light scatter following 72 hours for primary human or 120 hours for Jurkat and Ramos in standard culture conditions. Viable cell percentage was analyzed as the percent decrease of viable cells compared to a control well with no Compound 2 using a standard flow cytometry lymphocyte analysis gate of forward and side scatter.

[9] = system: Ca^2+ influx in murine cerebellum CRL-2540 cells (mouse microglia); assay: Ca^2+ signaling assay in microglia activated with thapsigargin (Fluo-4); format: cell-based
Method: (§2) Compound 2 was screened for inhibition of Ca^2+ signaling by examining the intracellular Ca^2+ response in the presence of Compound 2 (FIG. 5). First, the murine cerebellum CRL-2540 cells, an immortalized line of mouse microglia, were loaded with the 2 μM of the Ca^2+ indicator dye, Fluo-4, to allow for detection of Ca^2+ influx. CRL-2540 cells were then cultured with Compound 2 and activated with 2 μM thapsigargin to induce Ca^2+ influx. Immediately after activation, Ca^2+ influx was determined by measuring CRL-2540 fluorescence using a flow cytometer. Maximal Ca^2+ influx occurred with a 0.52 fold increase in mean Fluo-4 fluorescence intensity compared to an unstimulated control.

[10] = system: Human Jurkat T cells; assay: Cancer cell viability assay, Jurkat; format: cell-based; details: 120 hours, flow cytometric light scatter
Method: as §1

[11] = system: primary human T cells; assay: Cell viability assay, primary human T cells; format: cell-based; details: primary human T cells from a healthy donor, activated, 72 hours
Method: as §1

[12] = system: Ca^2+ influx in human Jurkat T cells; assay: Ca^2+ signaling assay in Jurkat T cells activated with PHA-P (Fluo-4, flow cytometer); format: cell-based
Method: as §2, with “2).” for “5).”, “human Jurkat T” for “murine cerebellum CRL-2540”, “human acute T cell lymphoblastic leukemia,” for “mouse microglia,”, “Jurkat” for “CRL-2540”, “Phytohemagglutinin PHA-P” for “2 μM thapsigargin”, “2.9” for “0.52”

[13] = male, Sprague Dawley, plasma, iv, 10000 ug/kg
[14] = male, Sprague Dawley, plasma, po, 10000 ug/kg

T1 sequence (Q96D31 whole entry): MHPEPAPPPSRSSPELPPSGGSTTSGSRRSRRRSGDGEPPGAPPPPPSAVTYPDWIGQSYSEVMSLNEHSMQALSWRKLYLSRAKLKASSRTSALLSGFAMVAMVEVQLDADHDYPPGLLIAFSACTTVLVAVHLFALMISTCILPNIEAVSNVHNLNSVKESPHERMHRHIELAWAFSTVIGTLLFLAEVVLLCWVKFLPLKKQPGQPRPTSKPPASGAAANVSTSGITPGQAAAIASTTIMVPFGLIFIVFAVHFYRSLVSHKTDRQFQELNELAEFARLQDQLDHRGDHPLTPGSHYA

- concentration at 1 h ([2]; Compound level in the brain): 38 ± 4 nM
- concentration at 1 h ([2]; Compound level in the plasma): 23.3 ± 3.1 nM
- AUC(0-inf) [5, 13]: 706 ng·h/mL
- AUC(0-t) [5, 13]: 694 ng·h/mL
- Cmax [5, 13]: 837 ng/mL
- MRT inf [5, 13]: 1.9 h
- Tmax [5, 13]: 0.25 h
- clearance [5, 13]: 236 mL/min/kg
- half-life ([5]; male, Sprague Dawley, plasma, iv, 10000 ug/kg, i.v., 10000 μg/kg, read-out: Terminal t½ (converted)): 2.64 h
- Vd ([5]; male, Sprague Dawley, plasma, iv, 10000 ug/kg, i.v., 10000 μg/kg, read-out: VSS): 26.9 L/kg
- AUC(0-inf) [5, 14]: 747 ng·h/mL
- AUC(0-t) [5, 14]: 679 ng·h/mL
- Cmax [5, 14]: 126 ng/mL
- Tmax [5, 14]: 2 h
- bioavailability [5, 14]: 106%
- half-life ([5]; male, Sprague Dawley, plasma, po, 10000 ug/kg, p.o., 10000 μg/kg, read-out: T½ (converted)): 3.27 h
- efflux ratio [6]: 1.6
- Papp A→B ([6]; Apical to Basolateral): 1 ×10⁻⁶ cm/s
- Papp B→A ([6]; Basolateral to Apical): 1.6 ×10⁻⁶ cm/s
Structure (SMILES): CC(C)(C)c1cc(CCC(=O)c2ccc[nH]2)cc(C(C)(C)C)c1O [Compound 1, 3-(3,5-di-tert-butyl-4-hydroxyphenyl)-1-(1H-pyrrol-2-yl)propan-1-one]
- Animal body weight and clinical observations [1]: appeared normal
- Recovery of animals in the EAE model ([3]; 5 mg/kg i.p. daily starting on day −1): enhanced recovery
- Neuroprotection (clinical score) compared to vehicle-treated mice ([3]; 5 mg/kg i.p. daily, p<0.05): significant neuroprotection
- Modulation of store-operated Ca^2+ (SOC) channels [4]: modulates store-operated Ca^2+ (SOC) channels
- Animal body weight and clinical observations ([5]; p.o. or i.v., 10000 μg/kg): appeared normal

Structure (SMILES): CC(C)(C)c1cc(CCC(=O)c2[nH]c(Cl)c(Cl)c2Cl)cc(C(C)(C)C)c1O [Compound 2, 3-(3,5-di-tert-butyl-4-hydroxyphenyl)-1-(3,4,5-trichloro-1H-pyrrol-2-yl)propan-1-one]
- Maximal inhibition of proliferation, fold increase in activation index compared to an unstimulated control ([7]; maximal proliferation 3.9 fold): 0.91 fold
- IC50 ([7]; Homo sapiens, T-cell, anti-CD3/anti-CD28/IL-2 activation, read-out: IC50 of inhibition of primary human T cell proliferation): 0.671 µM
- Cell viability in the presence of compound [8]: decreased
- Maximal inhibition of Ca^2+ influx, fold increase compared to an unstimulated control ([9]; CRL-2540, thapsigargin, maximal influx 0.52 fold): 0.19 fold
- IC50 ([9]; Mus musculus, CRL-2540 microglia, 2 μM thapsigargin, Fluo-4, read-out: IC50 of inhibition of Ca^2+ influx): 10.9 µM
- Cell viability in the presence of compound [10]: decreased
- Cell viability in the presence of compound [11]: did not decrease
- IC50 ([12]; Homo sapiens, PHA-P activation, Fluo-4 fluorescence, read-out: IC50 of inhibition of Ca^2+ influx): 3.78 µM
- Maximal inhibition of Ca^2+ influx, fold increase compared to an unstimulated control ([12]; PHA-P, maximal influx 2.9 fold): 0.35 fold
